Experimental findings from patent US10669269B2, “Substituted N-(1H-indazol-4-yl)imidazo[1,2-a]pyridine-3-carboxamide compounds as type III receptor tyrosine kinase inhibitors” (ARRAY BIOPHARMA INC., priority 2010, dated 2020) are described below.

For assay [1], the target named is T1, PDGFR beta (Homo sapiens, UniProt P09619).
T1 construct: endogenous in cells; host or cells: HS27 human fibroblast cell line
Nature of the assay: Phospho PDGFR LICOR Cell Assay (Example B). The class given is cell-based. The settings on record: averaged IC50; PDGFR beta phosphorylation in HS27 human fibroblast cell line, PDGF-BB stimulation 10 minutes, normalized to total ERK. The method in brief: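 HS27 human fibroblasts pretreated 1 h with compound, then stimulated 10 min with PDGF-BB. Fixed, permeabilized cells immunostained for phospho-PDGFRβ and total ERK and read by two-colour infrared fluorescence, with phospho signal normalized to ERK. IC50 = 50% of control from 4-parameter logistic fit.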

Assay [2] deals with T1, PDGFR beta. Nature of the assay: Phospho PDGFR Cell Assay, sandwich ELISA (Example A). The settings on record: averaged IC50, PDGFR beta phosphorylation in HS27 human fibroblast cell line, PDGF-BB stimulation 5 minutes. It is filed as cell-based. In a few lines:
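HS27 human fibroblasts were pretreated with compound for 1 h, stimulated with PDGF-BB for 5 min, then lysed. Phospho-PDGFR beta was measured by sandwich ELISA, and IC50 was taken as the concentration giving 50 percent of control from a 4-parameter logistic fit.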
Background: ELISA stands for enzyme-linked immunosorbent assay.

Assay [3] deals with T2, c-KIT (Homo sapiens, UniProt P10721).
T2 construct: M-07e cells (human acute megakaryoblastic leukemia cell line) were serum-starved for 4 hours; endogenous in cells; host or cells: M-07e cells (human acute megakaryoblastic leukemia cell line)
Nature of the assay: c-KIT Cell-Based Assay (Example D). The conditions noted are these: averaged IC50; phospho-c-KIT in M-07e cells stimulated with 150 ng/ml recombinant human SCF; read-out: cKIT Cell ELISA IC50. In a few lines: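 M-07e cells serum-starved 4 h, treated 1 h with compound (9-point, 3-fold dilutions, top dose typically 5,000 nM) at 37° C, then stimulated 4 min with 150 ng/ml SCF. Phospho-c-KIT in lysates quantified by ELISA against a standard curve; IC50 from 4-parameter logistic fit as 50% of control.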

In assay [4] the target is T3, cFMS (Homo sapiens, UniProt P07333).
T3 construct: THP-1 cells (human acute monocytic leukemia cell line) were serum-starved for 4 hours; endogenous in cells; host or cells: THP-1 cells (human acute monocytic leukemia cell line)
Nature of the assay: cFMS Cell-Based Assay (Example C). The conditions noted are these: averaged IC50; phospho-cFMS in THP-1 cells stimulated with 250 ng/mL recombinant human MCSF; read-out: cFMS Cell ELISA IC50. The method in brief:
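THP-1 cells serum-starved 4 h, then treated 1 h with compound (9-point, 3-fold series, top dose typically 5,000 nM) at 37 °C, then stimulated 1 min with 250 ng/mL recombinant human MCSF. Phospho-cFMS in lysates quantified by capture ELISA against a purified phospho-protein standard curve. IC50 at 50 percent of control, 4-parameter logistic fit.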

pIC50: −log10 of the molar value.

T2 sequence (P10721 26-976): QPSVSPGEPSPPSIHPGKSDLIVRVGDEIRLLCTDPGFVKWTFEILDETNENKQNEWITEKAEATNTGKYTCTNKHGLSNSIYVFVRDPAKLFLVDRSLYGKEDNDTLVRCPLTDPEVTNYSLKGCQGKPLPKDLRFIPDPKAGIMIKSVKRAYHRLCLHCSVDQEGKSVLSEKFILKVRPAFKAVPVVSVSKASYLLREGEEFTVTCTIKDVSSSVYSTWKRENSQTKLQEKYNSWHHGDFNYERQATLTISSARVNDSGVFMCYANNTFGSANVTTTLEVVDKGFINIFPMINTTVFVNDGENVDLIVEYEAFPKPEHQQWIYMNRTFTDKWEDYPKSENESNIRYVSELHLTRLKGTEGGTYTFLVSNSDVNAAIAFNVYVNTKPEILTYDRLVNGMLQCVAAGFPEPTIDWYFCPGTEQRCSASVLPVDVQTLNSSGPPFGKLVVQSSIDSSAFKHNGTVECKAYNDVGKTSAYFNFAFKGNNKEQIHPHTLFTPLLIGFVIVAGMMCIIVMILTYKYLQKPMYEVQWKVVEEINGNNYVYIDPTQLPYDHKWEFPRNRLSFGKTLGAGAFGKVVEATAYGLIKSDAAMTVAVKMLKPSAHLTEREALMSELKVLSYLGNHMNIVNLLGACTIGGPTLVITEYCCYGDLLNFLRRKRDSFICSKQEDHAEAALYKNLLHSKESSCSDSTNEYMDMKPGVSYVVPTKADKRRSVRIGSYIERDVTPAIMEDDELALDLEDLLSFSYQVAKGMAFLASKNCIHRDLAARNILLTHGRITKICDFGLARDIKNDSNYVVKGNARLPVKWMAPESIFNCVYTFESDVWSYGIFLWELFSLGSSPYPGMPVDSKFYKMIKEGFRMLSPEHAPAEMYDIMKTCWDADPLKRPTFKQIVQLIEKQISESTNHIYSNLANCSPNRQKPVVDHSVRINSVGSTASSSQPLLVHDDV
T3 sequence (P07333 20-972): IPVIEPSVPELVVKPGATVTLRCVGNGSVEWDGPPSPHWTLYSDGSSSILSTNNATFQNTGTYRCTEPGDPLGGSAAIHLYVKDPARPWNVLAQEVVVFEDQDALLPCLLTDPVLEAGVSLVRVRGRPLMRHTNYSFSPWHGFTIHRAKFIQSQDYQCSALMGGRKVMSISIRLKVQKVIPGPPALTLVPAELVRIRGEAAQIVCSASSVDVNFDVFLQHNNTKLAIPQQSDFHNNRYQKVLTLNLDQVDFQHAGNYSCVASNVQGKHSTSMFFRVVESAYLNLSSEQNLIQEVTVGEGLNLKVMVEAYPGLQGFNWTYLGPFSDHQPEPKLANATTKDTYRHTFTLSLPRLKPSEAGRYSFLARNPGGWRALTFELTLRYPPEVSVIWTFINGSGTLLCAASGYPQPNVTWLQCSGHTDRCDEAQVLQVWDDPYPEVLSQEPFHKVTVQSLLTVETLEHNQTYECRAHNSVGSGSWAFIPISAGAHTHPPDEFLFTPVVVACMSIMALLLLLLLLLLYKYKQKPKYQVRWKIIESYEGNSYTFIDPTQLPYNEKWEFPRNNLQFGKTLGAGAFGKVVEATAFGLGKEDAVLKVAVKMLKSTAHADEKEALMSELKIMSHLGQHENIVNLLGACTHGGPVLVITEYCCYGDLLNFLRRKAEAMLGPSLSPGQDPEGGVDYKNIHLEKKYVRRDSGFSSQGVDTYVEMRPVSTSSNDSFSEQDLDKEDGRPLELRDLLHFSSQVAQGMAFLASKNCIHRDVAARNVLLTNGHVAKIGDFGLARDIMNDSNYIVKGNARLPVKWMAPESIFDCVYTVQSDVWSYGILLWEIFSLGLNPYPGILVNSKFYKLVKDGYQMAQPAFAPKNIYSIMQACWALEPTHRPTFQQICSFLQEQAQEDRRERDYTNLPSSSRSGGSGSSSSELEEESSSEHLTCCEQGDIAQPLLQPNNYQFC
T1 sequence (P09619 33-1106): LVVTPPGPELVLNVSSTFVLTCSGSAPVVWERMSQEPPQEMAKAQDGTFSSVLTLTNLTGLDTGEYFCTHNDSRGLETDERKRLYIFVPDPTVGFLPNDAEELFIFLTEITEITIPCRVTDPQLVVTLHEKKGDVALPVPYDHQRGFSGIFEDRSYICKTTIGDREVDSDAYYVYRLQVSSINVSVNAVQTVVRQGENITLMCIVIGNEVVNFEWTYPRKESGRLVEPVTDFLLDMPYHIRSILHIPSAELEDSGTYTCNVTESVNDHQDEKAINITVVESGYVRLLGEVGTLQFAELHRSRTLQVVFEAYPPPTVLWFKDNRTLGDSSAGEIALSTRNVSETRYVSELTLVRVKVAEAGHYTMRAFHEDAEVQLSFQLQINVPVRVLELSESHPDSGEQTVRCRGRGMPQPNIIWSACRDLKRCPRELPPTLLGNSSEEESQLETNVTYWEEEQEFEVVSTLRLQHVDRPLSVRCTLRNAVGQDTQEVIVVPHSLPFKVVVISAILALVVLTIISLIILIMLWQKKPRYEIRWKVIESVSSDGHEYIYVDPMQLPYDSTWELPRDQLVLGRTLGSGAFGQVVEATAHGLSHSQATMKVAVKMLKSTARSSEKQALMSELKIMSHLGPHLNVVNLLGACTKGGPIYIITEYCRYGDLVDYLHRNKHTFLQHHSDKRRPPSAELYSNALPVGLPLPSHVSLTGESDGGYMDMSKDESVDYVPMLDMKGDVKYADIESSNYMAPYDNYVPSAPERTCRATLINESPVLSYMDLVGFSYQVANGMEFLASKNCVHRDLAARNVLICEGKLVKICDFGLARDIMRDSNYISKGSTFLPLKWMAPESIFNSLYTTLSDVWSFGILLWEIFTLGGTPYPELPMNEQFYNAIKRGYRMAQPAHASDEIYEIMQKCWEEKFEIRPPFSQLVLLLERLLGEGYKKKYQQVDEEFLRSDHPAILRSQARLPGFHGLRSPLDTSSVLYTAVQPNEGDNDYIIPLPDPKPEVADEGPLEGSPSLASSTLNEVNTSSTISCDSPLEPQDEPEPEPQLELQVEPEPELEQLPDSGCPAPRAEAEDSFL

For the molecule `Cc1nn(Cc2cccc(C(C)C)n2)c2cccc(NC(=O)c3cnc4cc(OCCN5CCN(C)CC5)ccn34)c12` [Example 66, N-(1-((6-isopropylpyridin-2-yl)methyl)-3-methyl-1H-indazol-4-yl)-7-(2-(4-methylpiperazin-1-yl)ethoxy)imidazo[1,2-a]pyridine-3-carboxamide], the pIC50 in assay [1] was 8.32; in assay [2] it was 7.74; in assay [3], 7.51; in assay [4] it was 7.99.

As for `Cc1nn(Cc2csc(C(C)C)n2)c2cccc(NC(=O)c3cnc4cc(OCCN5CC6(COC6)C5)ccn34)c12` [Example 14, 7-(2-(2-oxa-6-azaspiro[3.3]heptan-6-yl)ethoxy)-N-(1-((2-isopropylthiazol-4-yl)methyl)-3-methyl-1H-indazol-4-yl)imidazo[1,2-a]pyridine-3-carboxamide], the pIC50 is 7.44 in assay [1], 7.42 in assay [2], 7.02 in assay [3] and 7.69 in assay [4].

`Cc1nn(Cc2cccc(C(C)C)n2)c2cccc(NC(=O)c3cnc4cc(OCCN5CC6(COC6)C5)ccn34)c12` [Example 5, 7-(2-(2-oxa-6-azaspiro[3.3]heptan-6-yl)ethoxy)-N-(1-((6-isopropylpyridin-2-yl)methyl)-3-methyl-1H-indazol-4-yl)imidazo[1,2-a]pyridine-3-carboxamide]: the pIC50 in assay [1] was 7.66; in assay [2], 7.69; in assay [3], 7.08; in assay [4], 7.55.

In the case of `Cc1nn(Cc2cccc(C3CC3)n2)c2cccc(NC(=O)c3cnc4cc(OCCN5CCN(C(C)C)CC5)ccn34)c12` [Example 16, N-(1-((6-cyclopropylpyridin-2-yl)methyl)-3-methyl-1H-indazol-4-yl)-7-(2-(4-isopropylpiperazin-1-yl)ethoxy)imidazo[1,2-a]pyridine-3-carboxamide], the pIC50 was 6.99 in assay [1], 7.55 in assay [2], 7.46 in assay [3] and 7.86 in assay [4].

With `O=C(Nc1cccc2c1cnn2Cc1ccccc1)c1cnc2cc(OCC(O)CO)ccn12` (centres unmarked) [Example 91, N-(1-benzyl-1H-indazol-4-yl)-7-(2,3-dihydroxypropoxy)imidazo[1,2-a]pyridine-3-carboxamide], the pIC50 is 7.96 in assay [1], 7.65 in assay [2], 7.52 in assay [3] and 8.36 in assay [4].

By pIC50 is commonly meant the IC50 on a negative log10 scale, so that one unit is a factor of ten.
